Test results taken from US7951990B2, “Method and means for determining fitness in plants” (Bayer Bioscience N.V., priority 2001, dated 2011).

Columns and labels:
Format in all cases: cell-based, Brassica napus
[1] = test system: electron flow in the mitochondrial electron transport chain (TTC-reducing capacity of hypocotyl explants); assay: vigour assay (TTC-assay) with acetylsalicylic acid added to the incubation medium; settings: for TTC-reducing capacity after treatment versus control condition / TTC-reducing capacity after treatment: 25 mg/l; for TTC-reducing capacity after treatment versus control condition: about 18 hours
[2] = test system: superoxide production by the hypocotyl explants; assay: quantification of superoxide production by hypocotyl explants (XTT reduction); settings: 25 mg/l, incubation for 18 hours; all four hybrid lines
[3] = test system: cytochromal and alternative respiratory pathways

SMILES	TTC-reducing capacity after treatment versus control condition ([1]; hybrid line 13 (lowest seed yield))	TTC-reducing capacity after treatment versus control condition ([1]; hybrid line 41 (highest seed yield))	TTC-reducing capacity after treatment ([1]; parental line DH7 (poor combining ability))	TTC-reducing capacity after treatment ([1]; parental lines A and B (excellent combining ability))	TTC-reducing capacity after treatment ([1]; parental lines DH4, DH5 and DH10 (moderate to good combining ability))	TTC-reducing capacity ([1]; 50 mg/l, best performing hybrid lines)	TTC-reducing capacity ([1]; 50 mg/l, hybrid lines with a less pronounced heterosis)	TTC-reducing capacity ([1]; 100 mg/l, best performing hybrid lines)	XTT reduction (superoxides) [2]	influence on the TTC reduction [3]
CC(=O)Oc1ccccc1C(=O)O [acetylsalicylic acid]	increased drastically	strongest decrease	high increase	decreased	no or only a small increase	increased	didn't show at 50 mg/l acetylsalicylic acid this increase	decrease again	lower amounts of XTT were reduced	–
O=C(NO)c1ccccc1O [SHAM, salicylhydroxamic acid]	–	–	–	–	–	–	–	–	–	does not seem to have a major influence
